Source: patent publication US10640430B2, “Fertilizer capsule comprising one or more cores and method of making same” (SAUDI BASIC INDUSTRIES CORPORATION, priority 2014, dated 2020)
“Also recorded” adds a separate entry of the source.

Key:
[1] = Stability of inhibitors in extrudates in urea melt (HPLC, LCMS); assay type: physicochemical; details: urea melt conditions
Protocol: Representative procedure for checking the Inhibitor stability in urea melt: The extrudate (1.0 g) was added to a vial containing urea melt (3.0 g) and it was left at the same temperature for one minute. The Vial was then cooled to room temperature and diluted with 5.0 ml of water (milli-Q water). The water was decanted and the same process was repeated twice, to remove most of the urea. Finally, water (5.0 ml) was added to the extrudate and left for 4 h before submitting the samples for HPLC analysis.
Stability of inhibitors in urea melt: Extrudates containing inhibitors were tested for their stability in urea melt using HPLC and LCMS.
Extrudates containing NBTPT/DCD were dipped in urea melt in order to check the stability of the extrudates. Two types of studies were performed, 1) to check the deformation ability of extrudate in urea melt; and 2) to check the stability of inhibitors. Castor wax extrudates with and without inhibitors sustain the urea melt conditions under 5 seconds but inhibitors (NBTPT and DCD) were stable under these conditions. Bleached wheat flour containing extrudates sustained the urea melt temperature (133-135° C.). High melt waxes are taken in to consideration in order to mitigate the problem of possible deformation of wax extrudates when exposed to urea melt. The extrudates of high melt waxes were exposed to urea melt. […] The stability of NBTPT and DCD under urea melt temperature were analyzed and confirmed by HPLC and LCMS.

[2] = cited from earlier work
[3] = Thermal stability of neat NBTPT and NBTPT within a core at 133-135° C. by HPLC; assay type: physicochemical; details: exposed to 133-135° C. (urea melt temperature), up to 30 min
Protocol: The thermal stability of neat NBTPT and NBTPT contained within a core, as disclosed herein, can be determined by HPLC. For example, neat NBTPT or a core containing NBTPT can be exposed to 135° C. (133-135° C. is the typical temperature range of a urea melt) and can continuously be analyzed by HPLC every 5 min. Such data will determine how whether the NBTPT has better thermal stability when contained within a core, as compared to neat NBTPT.
The thermal stability of neat NBTPT and NBTPT within a core was determined by HPLC. The core for this example contained 58.8 wt % PoP, 39.2 wt % bleached wheat flour, and 2.0 wt % NBTPT. Both neat NBTPT and NBTPT within a core were exposed to 133-135° C., which is the typical urea melt temperature. […] The data indicates the core protects fertilizer additive materials, such as an inhibitor, from degradation during manufacturing conditions, including the expose of temperatures associated with a urea melt. The thermal stability of materials, such as an inhibitor is critical for its good performance (inhibition) in the soil. The intended function of a material, such as an inhibitor, can be lost if the material degrades when exposed to high temperatures during the manufacturing process.

[4] = Stability of NBTPT during oven drying of water containing extrudates; assay type: physicochemical; details: extrudates dried in oven at 120° C. overnight
Text: Optimized formulations from the DACA were successfully extruded in the pilot scale extruder in 300 g scale. 100% bleached wheat flour was also extruded with 10-20% water which was not done in DACA.

[5] = bleached wheat flour extrudate containing the inhibitor
[6] = castor wax extrudate containing the inhibitor

Compound	Degradation of inhibitor in HPLC [1, 5]	Degradation of inhibitor in HPLC [1, 6]	Thermal stability in the soil ([2]; hot climatic region, soil)	Thermal stability (decomposition by HPLC) ([3]; listed as Neat NBTPT)	Thermal stability (decomposition by HPLC) ([3]; listed as neat NBTPT)	Stability of NBTPT on drying [4]	Stability under acidic pH ([2]; acidic pH)
N#CN=C(N)N [DCD, dicyandiamide]	no degradation	stable; also recorded: no degradation	thermal instability	–	–	–	–
CCCCNP(N)(N)=S [NBTPT, N-(n-butyl) thiophosphoric triamide]	no degradation	stable; also recorded: no degradation	–	significant degradation	decomposes	stable	unstable
